From patent publication US20250381243A1, “HETEROCYCLES AND USES THEREOF” (Kumquat Biosciences Inc., priority 2022, published 2025)
Like-named read-outs stand apart in the source and are kept apart here.

Test system: A549 cells
Experiment: Cell proliferation assay (CellTiter-Glo), cells with K-Ras G12S mutation
Format: cell-based
Conditions: Homo sapiens, read-out: Inhibition of A549 Cells (IC50)
Description: A549 (ATCC CRL-185) and LS123 (ATCC CRL-255) cell lines comprise a G12S mutation and can be used to assess Ras cellular signaling in vitro, e.g., in response to treatment with a compound described herein. A549 culture medium is prepared with RPMI-1640 and 10% heat-inactivated FBS. LS123 culture medium is prepared with RPMI-1640 and 10% heat-inactivated FBS. A CellTiter-Glo (CTG) luminescent based assay (Promega) is used to assess growth of the cells, as a measurement of the ability of the compounds herein to inhibit Ras signaling in the cells. The cells (e.g., 800 per well) are seeded in their respective culture medium in standard tissue culture-treated 384-well format plates (Falcon #08-772-116) or ultra-low attachment surface 384-well format plates (S-Bio #MS-9384WZ). The day after plating, cells are treated with a dilution series (e.g., a 10 point 3-fold dilution series) of the compounds herein (e.g., approximately 40 μl final volume per well). Cell viability can be monitored (e.g., approximately 6 days later) according to the manufacturer's recommended instructions, where CellTiter-Glo reagent is added (e.g., approximately 10 μl), vigorously mixed, covered, and placed on a plate shaker (e.g., approximately for 20 min) to ensure sufficient cell lysis prior to assessment of luminescent signal. The IC50 values are determined using the four parameter fit. The resulting IC50 value is a measurement of the ability of the test compound to reduce cell growth of Ras-driven cells (e.g., tumor cell lines) in vitro and/or in vivo.

| SMILES | IC50 (500 nM to 5 μM (mixed units)) [µM] | IC50 (≤500 nM) [µM] |
| --- | --- | --- |
| CC1CC2C(CCCN2c2nc(OC[C@@]34CCCN3C[C@H](F)C4)nc3c(F)c(-c4ccc(F)c5sc(N)c(C#N)c45)c(Cl)cc23)N1C(=O)n1cncn1 (stereo partly drawn) [Compound 113, 2-amino-4-(6-chloro-8-fluoro-2-(((2R,7aS)-2-fluorotetrahydro-1H-pyrrolizin-7a(5H)-yl)methoxy)-4-(2-methyl-1-(1H-1,2,4-triazole-1-carbonyl)octahydro-4H-pyrrolo[3,2-b]pyridin-4-yl)quinazolin-7-yl)-7-fluorobenzo[b]thiophene-3-carbonitrile] | 0.5 to 5 |  |
| CCN(C(=O)n1cnc(F)n1)[C@@H]1CCN(c2nc(OC[C@@]34CCCN3C[C@H](F)C4)nc3c(F)c(-c4ccc(F)c5sc(N)c(C#N)c45)c(Cl)cc23)[C@@H]1C [Compound 115, N-((2R,3R)-1-(7-(2-amino-3-cyano-7-fluorobenzo[b]thiophen-4-yl)-6-chloro-8-fluoro-2-(((2R,7aS)-2-fluorotetrahydro-1H-pyrrolizin-7a(5H)-yl)methoxy)quinazolin-4-yl)-2-methylpyrrolidin-3-yl)-N-ethyl-3-fluoro-1H-1,2,4-triazole-1-carboxamide] |  | ≤ 0.5 |
| CC(C)C1N(C(=O)n2cncn2)CC12CCCN(c1nc(OC[C@@]34CCCN3C[C@H](F)C4)nc3c(F)c(-c4ccc(F)c5sc(N)c(C#N)c45)c(Cl)cc13)C2 (stereo partly drawn) [Compound 116, 2-amino-4-(6-chloro-8-fluoro-2-(((2R,7aS)-2-fluorotetrahydro-1H-pyrrolizin-7a(5H)-yl)methoxy)-4-(1-isopropyl-2-(1H-1,2,4-triazole-1-carbonyl)-2,6-diazaspiro[3.5]nonan-6-yl)quinazolin-7-yl)-7-fluorobenzo[b]thiophene-3-carbonitrile] |  | ≤ 0.5 |
| CC(C)[C@H]1N(C(=O)n2cncn2)C[C@]12CCCN(c1nc(OC[C@@]34CCCN3C[C@H](F)C4)nc3c(F)c(-c4ccc(F)c5sc(N)c(C#N)c45)c(Cl)cc13)C2 [Compound 118, 2-amino-4-(6-chloro-8-fluoro-2-(((2R,7aS)-2-fluorotetrahydro-1H-pyrrolizin-7a(5H)-yl)methoxy)-4-((1R,4R)-1-isopropyl-2-(1H-1,2,4-triazole-1-carbonyl)-2,6-diazaspiro[3.5]nonan-6-yl)quinazolin-7-yl)-7-fluorobenzo[b]thiophene-3-carbonitrile] |  | ≤ 0.5 |
| CN(C(=O)n1cncn1)C1CCCN(c2nc(OC[C@@]34CCCN3C[C@H](F)C4)nc3c(F)c(-c4ccc(F)c5sc(N)c(C#N)c45)c(Cl)cc23)C1 (stereo partly drawn) [Compound 119, N-(1-(7-(2-amino-3-cyano-7-fluorobenzo[b]thiophen-4-yl)-6-chloro-8-fluoro-2-(((2R,7aS)-2-fluorotetrahydro-1H-pyrrolizin-7a(5H)-yl)methoxy)quinazolin-4-yl)piperidin-3-yl)-N-methyl-1H-1,2,4-triazole-1-carboxamide] |  | ≤ 0.5 |
| COCC1([C@@H]2[C@H](CN(C)c3nc(OC[C@@]45CCCN4C[C@H](F)C5)nc4c(F)c(-c5ccc(F)c6sc(N)c(C#N)c56)c(Cl)cc34)CN2C(=O)n2cnc(F)n2)CC1 [Compound 120, 2-amino-4-(6-chloro-8-fluoro-4-((((2S,3R)-1-(3-fluoro-1H-1,2,4-triazole-1-carbonyl)-2-(1-(methoxymethyl)cyclopropyl)azetidin-3-yl)methyl)(methyl)amino)-2-(((2R,7aS)-2-fluorotetrahydro-1H-pyrrolizin-7a(5H)-yl)methoxy)quinazolin-7-yl)-7-fluorobenzo[b]thiophene-3-carbonitrile] |  | ≤ 0.5 |
| CCC1N(C(=O)n2cncn2)CC12CCN(c1nc(OC[C@@]34CCCN3C[C@H](F)C4)nc3c(F)c(-c4ccc(F)c5sc(N)c(C#N)c45)c(Cl)cc13)C2 (stereo partly drawn) [Compound 123, (4R)-2-amino-4-(6-chloro-4-(1-ethyl-2-(1H-1,2,4-triazole-1-carbonyl)-2,6-diazaspiro[3.4]octan-6-yl)-8-fluoro-2-(((2R,7aS)-2-fluorotetrahydro-1H-pyrrolizin-7a(5H)-yl)methoxy)quinazolin-7-yl)-7-fluorobenzo[b]thiophene-3-carbonitrile] |  | ≤ 0.5 |
| CN(C(=O)n1cncn1)C1CCN(c2nc(OC[C@@]34CCCN3C[C@H](F)C4)nc3c(F)c(-c4ccc(F)c5sc(N)c(C#N)c45)c(Cl)cc23)C1 (stereo partly drawn) [Compound 124, N-(1-(7-(2-amino-3-cyano-7-fluorobenzo[b]thiophen-4-yl)-6-chloro-8-fluoro-2-(((2R,7aS)-2-fluorotetrahydro-1H-pyrrolizin-7a(5H)-yl)methoxy)quinazolin-4-yl)pyrrolidin-3-yl)-N-methyl-1H-1,2,4-triazole-1-carboxamide] |  | ≤ 0.5 |
| CC1C(N(C)C(=O)n2cncn2)CCN1c1nc(OC[C@@]23CCCN2C[C@H](F)C3)nc2c(F)c(-c3ccc(F)c4sc(N)c(C#N)c34)c(Cl)cc12 (stereo partly drawn) [Compound 125, N-(1-(7-(2-amino-3-cyano-7-fluorobenzo[b]thiophen-4-yl)-6-chloro-8-fluoro-2-(((2R,7aS)-2-fluorotetrahydro-1H-pyrrolizin-7a(5H)-yl)methoxy)quinazolin-4-yl)-2-methylpyrrolidin-3-yl)-N-methyl-1H-1,2,4-triazole-1-carboxamide] |  | ≤ 0.5 |
| N#Cc1c(N)sc2c(F)ccc(-c3c(Cl)cc4c(N5CCCC6(C5)CN(C(=O)n5cncn5)C6C5CC5)nc(OC[C@@]56CCCN5C[C@H](F)C6)nc4c3F)c12 (stereo partly drawn) [Compound 127, 2-amino-4-(6-chloro-4-(1-cyclopropyl-2-(1H-1,2,4-triazole-1-carbonyl)-2,6-diazaspiro[3.5]nonan-6-yl)-8-fluoro-2-(((2R,7aS)-2-fluorotetrahydro-1H-pyrrolizin-7a(5H)-yl)methoxy)quinazolin-7-yl)-7-fluorobenzo[b]thiophene-3-carbonitrile] |  | ≤ 0.5 |
| COCC1([C@H]2N(C(=O)n3cnc(F)n3)C[C@]23CC[C@H](C)N(c2nc(OC[C@@]45CCCN4C[C@H](F)C5)nc4c(F)c(-c5ccc(F)c6sc(N)c(C#N)c56)c(Cl)cc24)C3)CC1 [Compound 129, 2-amino-4-(6-chloro-8-fluoro-4-((1S,4R,7S)-2-(3-fluoro-1H-1,2,4-triazole-1-carbonyl)-1-(1-(methoxymethyl)cyclopropyl)-7-methyl-2,6-diazaspiro[3.5]nonan-6-yl)-2-(((2R,7aS)-2-fluorotetrahydro-1H-pyrrolizin-7a(5H)-yl)methoxy)quinazolin-7-yl)-7-fluorobenzo[b]thiophene-3-carbonitrile] |  | ≤ 0.5 |
| CN(C[C@@H]1CN(C(=O)n2cnc(F)n2)[C@@H]1C1(C)CC1)c1nc(OC[C@@]23CCCN2C[C@H](F)C3)nc2c(F)c(-c3ccc(F)c4sc(N)c(C#N)c34)c(Cl)cc12 [Compound 130, 2-amino-4-(6-chloro-8-fluoro-4-((((2S,3R)-1-(3-fluoro-1H-1,2,4-triazole-1-carbonyl)-2-(1-methylcyclopropyl)azetidin-3-yl)methyl)(methyl)amino)-2-(((2R,7aS)-2-fluorotetrahydro-1H-pyrrolizin-7a(5H)-yl)methoxy)quinazolin-7-yl)-7-fluorobenzo[b]thiophene-3-carbonitrile] |  | ≤ 0.5 |
| CC[C@H]1N(C(=O)n2cnc(Cl)n2)C[C@]12CCCCN(c1nc(OC[C@@]34CCCN3C[C@H](F)C4)nc3c(F)c(-c4ccc(F)c5sc(N)c(C#N)c45)c(Cl)cc13)C2 [Compound 131, 2-amino-4-(6-chloro-4-((1R,4R)-2-(3-chloro-1H-1,2,4-triazole-1-carbonyl)-1-ethyl-2,6-diazaspiro[3.6]decan-6-yl)-8-fluoro-2-(((2R,7aS)-2-fluorotetrahydro-1H-pyrrolizin-7a(5H)-yl)methoxy)quinazolin-7-yl)-7-fluorobenzo[b]thiophene-3-carbonitrile] |  | ≤ 0.5 |
| N#Cc1c(N)sc2c(F)ccc(-c3c(Cl)cc4c(N5CCC[C@@]6(C5)CN(C(=O)n5cnc(Cl)n5)[C@@H]6C5CCC5)nc(OC[C@@]56CCCN5C[C@H](F)C6)nc4c3F)c12 [Compound 133, 2-amino-4-(6-chloro-4-((1R,4R)-2-(3-chloro-1H-1,2,4-triazole-1-carbonyl)-1-cyclobutyl-2,6-diazaspiro[3.5]nonan-6-yl)-8-fluoro-2-(((2R,7aS)-2-fluorotetrahydro-1H-pyrrolizin-7a(5H)-yl)methoxy)quinazolin-7-yl)-7-fluorobenzo[b]thiophene-3-carbonitrile] |  | ≤ 0.5 |
| CC(C)[C@H]1N(C(=O)n2cnc(Cl)n2)C[C@@]12CN(c1nc(OC[C@@]34CCCN3C[C@H](F)C4)nc3c(F)c(-c4ccc(F)c5sc(N)c(C#N)c45)c(Cl)cc13)CCO2 [Compound 134, 2-amino-4-(6-chloro-4-((1R,4S)-2-(3-chloro-1H-1,2,4-triazole-1-carbonyl)-1-isopropyl-5-oxa-2,8-diazaspiro[3.5]nonan-8-yl)-8-fluoro-2-(((2R,7aS)-2-fluorotetrahydro-1H-pyrrolizin-7a(5H)-yl)methoxy)quinazolin-7-yl)-7-fluorobenzo[b]thiophene-3-carbonitrile] |  | ≤ 0.5 |
